± gives the expanded uncertainty stated by the source.
How the values were obtained:
[1] = 101.3 kPa, Liquid; for viscosity: Capillary tube (Ostwald / Ubbelohde) method; for mass density: Pycnometric method
[2] = xn = mol fraction of the nth substance listed; settings: 101.3 kPa, Liquid; for viscosity: Capillary tube (Ostwald / Ubbelohde) method; for mass density: Pycnometric method

Compound | viscosity ([1]; 298.15 K) [mPa·s] | mass density ([1]; 298.15 K) [kg/m3] | viscosity ([1]; 303.15 K) [mPa·s] | mass density ([1]; 303.15 K) [kg/m3] | viscosity ([1]; 308.15 K) [mPa·s] | mass density ([1]; 308.15 K) [kg/m3] | viscosity ([1]; 313.15 K) [mPa·s] | mass density ([1]; 313.15 K) [kg/m3] | viscosity ([2]; 298.15 K, x1 = 1) [mPa·s] | mass density ([2]; 298.15 K, x1 = 1) [kg/m3] | viscosity ([2]; 303.15 K, x1 = 1) [mPa·s] | mass density ([2]; 303.15 K, x1 = 1) [kg/m3] | viscosity ([2]; 308.15 K, x1 = 1) [mPa·s] | mass density ([2]; 308.15 K, x1 = 1) [kg/m3] | viscosity ([2]; 313.15 K, x1 = 1) [mPa·s] | mass density ([2]; 313.15 K, x1 = 1) [kg/m3] | further results
CN(C)C=O [dimethylformamide] | 0.803 ± 0.006 | 944.5 ± 0.3 | 0.756 ± 0.006 | 939.8 ± 0.3 | 0.71 ± 0.005 | 935.1 ± 0.3 | 0.673 ± 0.005 | 930.2 ± 0.4 |  |  |  |  |  |  |  |  | 
Clc1ccccc1 [chlorobenzene] | 0.756 ± 0.006 | 1100.9 ± 0.4 | 0.714 ± 0.006 | 1095.8 ± 0.4 | 0.673 ± 0.005 | 1090.8 ± 0.4 | 0.635 ± 0.005 | 1085.1 ± 0.4 |  |  |  |  |  |  |  |  | 
c1ccccc1 [benzene] | 0.603 ± 0.006 | 873.4 ± 0.5 | 0.568 ± 0.005 | 868.2 ± 0.5 | 0.531 ± 0.005 | 862.9 ± 0.5 | 0.5 ± 0.005 | 857.4 ± 0.5 |  |  |  |  |  |  |  |  | 
CN(C)C=O [dimethylformamide] + Clc1ccccc1 |  |  |  |  |  |  |  |  | 0.803 ± 0.006 | 944.5 ± 0.3 | 0.756 ± 0.006 | 939.8 ± 0.3 | 0.71 ± 0.005 | 935.1 ± 0.3 | 0.673 ± 0.005 | 930.2 ± 0.4 | 
c1ccccc1 [benzene] + CN(C)C=O |  |  |  |  |  |  |  |  |  |  |  |  |  |  |  |  | viscosity ([2]; 298.15 K, x2 = 0): 0.603 ± 0.006 mPa·s; mass density ([2]; 298.15 K, x2 = 0): 873.4 ± 0.5 kg/m3; viscosity ([2]; 303.15 K, x2 = 0): 0.568 ± 0.005 mPa·s; mass density ([2]; 303.15 K, x2 = 0): 868.2 ± 0.5 kg/m3; viscosity ([2]; 308.15 K, x2 = 0): 0.531 ± 0.005 mPa·s; mass density ([2]; 308.15 K, x2 = 0): 862.9 ± 0.5 kg/m3; viscosity ([2]; 313.15 K, x2 = 0): 0.5 ± 0.005 mPa·s; mass density ([2]; 313.15 K, x2 = 0): 857.4 ± 0.5 kg/m3
c1ccccc1 [benzene] + Clc1ccccc1 |  |  |  |  |  |  |  |  | 0.603 ± 0.006 | 873.4 ± 0.5 | 0.568 ± 0.005 | 868.2 ± 0.5 | 0.531 ± 0.005 | 862.9 ± 0.5 | 0.5 ± 0.005 | 857.4 ± 0.5 | 

Reference: the NIST ThermoML archive (doi:10.1021/je030130y)
